The test system of one assay is obese mouse model. Nature of the assay: Glucose tolerance in high-fat-diet obese mouse model. It is filed as in vivo, C57BL/6N male mice. Particulars: obese mice, 2.5 mg/kg. The procedure:
5-week-old C57BL/6N male mice were obtained from Orient Bio, fed a normal diet, and used after an adaptation period of one week. The breeding environment was maintained at 18 to 24° C. and a humidity of 50 to 60%, and the animals were given free access to feed and water during both the adaptation period and the experimental period. After the one-week adaptation period, the mice were induced to become obese through a high-fat diet to induce impaired glucose tolerance.
The mice in which obesity was induced were divided into a control and an experimental group. All mice were fasted for 12 hours, and PBS and a peptide (No. 1, 7, or 8; 2.5 mg/kg) were administered to the control and the experimental group, respectively. One hour later, a 20% glucose solution was intraperitoneally injected, and blood collected at each time period was analyzed using a blood glucose analyzer.

A further assay relates to S6 (mTOR marker). Briefly: S6 phosphorylation in L6 skeletal muscle cells (western blotting). The conditions noted are these: 100 nM, 1 hour; for phosphorylation of S6 (mTOR marker): FIG. 8. The class given is cell-based. Here is the method: (§1) L6 skeletal muscle cells were cultured in a 6-well plate and then starved with 0.5% FBS. Thereafter, the cells were treated with an antidiabetic peptide at a concentration of 100 nM for 1 hour, proteins were collected, and then western blotting was performed.
(Immunoblotting shows a protein as a band on a membrane.)

Assay [1] has as its system adipocyte protein 2 (AP2). Nature of the assay: AP2 gene expression in muscle tissue of db/db mice. It is filed as in vivo, db/db diabetic mouse model. Particulars: db/db mice muscle tissue RNA, 2.5 mg/kg intraperitoneally, 8 weeks. The procedure: (§2) It was confirmed whether the antidiabetic peptide relieves diabetes mellitus induced by leptin receptor defects. As an animal model, 5-week-old C57BLKS/J-db/db male mice were provided by Central Lab. Animal Inc., fed a normal diet, and used after an adaptation period of one week. The breeding environment was maintained at 18 to 24° C. and a humidity of 50 to 60%, and the animals were given free access to normal feed and water during both the adaptation period and the experimental period. Mice that completed the adaptation period were divided into a control (intraperitoneal injection) and a peptide administration group. PBS and antidiabetic peptides (Nos. 7 and 8; 2.5 mg/kg) were intraperitoneally administered to the control and peptide administration groups, respectively, for a total of 8 weeks.
(§3) Various tissue examinations were performed on a db/db diabetic mouse model to confirm the efficacy of relieving diabetic complications. First, in order to confirm muscle loss-related effects, RNA was isolated from muscle tissue and the expression levels of muscle loss-related genes were confirmed. […]

Assay [2] deals with peroxisome proliferator-activated receptor α (PPARα). Briefly: PPARα gene expression in muscle tissue of db/db mice. The class given is in vivo, db/db diabetic mouse model. Particulars: db/db mice muscle tissue RNA, 2.5 mg/kg intraperitoneally, 8 weeks. The procedure: as §2, §3
For assay [3], the system named is CCAAT enhancer binding protein α (C/EBPα). Nature of the assay: C/EBPα gene expression in muscle tissue of db/db mice. The conditions noted are these: db/db mice muscle tissue RNA, 2.5 mg/kg intraperitoneally, 8 weeks. The class given is in vivo, db/db diabetic mouse model. Here is the method: as §2, §3
The subject of assay [4] is muscle RING Finger-1 (Murf-1). Nature of the assay: Murf-1 gene expression in muscle tissue of db/db mice. It is filed as in vivo, db/db diabetic mouse model. The conditions noted are these: db/db mice muscle tissue RNA, 2.5 mg/kg intraperitoneally, 8 weeks. Here is the method: as §2, §3
The test system of a further assay is FoxO1. Briefly: FoxO1 phosphorylation and expression in L6 skeletal muscle cells (western blotting). It is filed as cell-based. The conditions noted are these: 100 nM, 1 hour. Here is the method: as §1
For assay [5], the system named is glucose transporter type 4 (GLUT4). Nature of the assay: GLUT4 translocation to the cell membrane in C2C12 skeletal muscle cells. The class given is cell-based. Particulars: 100 nM, 1 hour, FIG. 3: Nos. 1 to 8 and insulin. Here is the method: Similarly, in order to further verify the function of promoting glucose metabolism by antidiabetic peptide treatment, the degree of expression of a glucose transporter type 4 (GLUT4) glucose receptor, which plays an important role in glucose uptake, in the cell membrane was measured. It is known that GLUT4 moves from the cytoplasm to the cell membrane to promote sugar metabolism, and thus the expression level thereof increases. To confirm this, C2C12 skeletal muscle cells were starved with 0.5% FBS and then treated with the peptide and insulin, which is a positive control, at a concentration of 100 nM for 1 hour. Cells were fixed with 4% paraformaldehyde, incubated with a GLUT4-specific antibody at 37° C. for 30 minutes, reacted with an o-phenylenediamine (OPD) solution, and absorbance was measured and compared with that of the control.

Take “AGSIREAGGAFGKREQAEEERYFR (listed as Homo sapiens) [No. 7]”: the “change in blood sugar over time (GLUAUC) reduced compared to the control” value in the assay on obese mouse model (after baseline correction) is 31.1%. Besides, in the assay with S6 (mTOR marker), the “phosphorylation of S6 (mTOR marker)” value is given as “increased”. In addition, the “AP2 gene expression change” value in assay [1] is recorded as −52.5%. In addition, the “PPARα gene expression change” value in assay [2] is “+94.1%”. Moreover, in assay [3], the “C/EBPα gene expression change” value was −18.6%. Besides, the “Murf-1 gene expression change” value in assay [4] is −90.1%.

Turning to “AQSREQLAALKK (listed as Homo sapiens) [No. 5]”, the “phosphorylation of S6 protein, increase” value in the assay on S6 (mTOR marker) was 494%.

“EQAEEER (listed as Homo sapiens) [No. 2]”: in the assay on S6 (mTOR marker), the “phosphorylation of S6 protein, increase” value worked out at 365%.

For the substance “EQAEEERYFR (listed as Homo sapiens) [No. 4]”, the “phosphorylation of S6 protein, increase” value in the assay on S6 (mTOR marker) is given as 224%.

With “REAGGAFGKR (listed as Homo sapiens) [No. 3]”, the “phosphorylation of S6 (mTOR marker)” value in the assay on S6 (mTOR marker) is given as “increased”.

In the case of “VDRGAGSIREAGGAFGKREQAEEERYFR (listed as Homo sapiens) [No. 8]”, the “blood sugar metabolism after glucose injection, baseline corrected, compared to the control” value in the assay on obese mouse model (fasted 12 hours, 20% glucose intraperitoneally one hour later, FIG. 4 left) is reported as “significantly improving”. The “phosphorylation of S6 protein, increase” value in the assay with S6 (mTOR marker) came out at 414%. Also, the “AP2 gene expression change” value in assay [1] is reported as −54.7%. For the same substance, the “PPARα gene expression change” value in assay [2] is “+12.9%”. In addition, the “C/EBPα gene expression change” value in assay [3] is −45.5%. Moreover, in assay [4], the “Murf-1 gene expression change” value was −36.0%.

As to YFR (listed as Homo sapiens) [No. 1], in the assay with S6 (mTOR marker), the “phosphorylation of S6 protein, increase” value is 188%. Also, the “expression level of total FoxO1” value with FoxO1 is listed as “decreased”. For the same substance, the “phosphorylation of FoxO1” value in the assay on FoxO1 (FIG. 9: Nos. 1 to 8) is given as “increased”.

“YFRAQSREQLAALKKHH (listed as Homo sapiens) [No. 6]”: the “phosphorylation of S6 (mTOR marker)” value in the assay with S6 (mTOR marker) is “increased”.

Consider insulin, for which the “GLUT4 translocation compared to the control” value in assay [5] is on record as “significant GLUT4 translocation”.

The values are drawn from patent publication US20240335499A1, “PEPTIDE HAVING ANTIDIABETIC ACTIVITY AND USE THEREOF” (MEDI&GENE INC., priority 2021, published 2024).
